Patent US7217710B2, “Substituted pyrazolopyrimidines” (SmithKline Beecham Corporation, priority 2001, dated 2007)

Key:
[1] = molecular target: T1, GST-TIE2 (intracellular domains of human TIE2) (Homo sapiens, UniProt Q02763); assay: TIE-2 Enzyme Assay (TIE2-E2), LANCE method; assay type: biochemical; settings: for IC50: read-out: TIE2 PIC50 TIE2-E2 assay
T1 construct: made in house
Outline: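 GST-tagged human TIE2 intracellular domain (aa 762–1104), preactivated 2 h with 80 μM ATP, then 5 nM enzyme run 2 h at room temperature with 1 μM biotinylated D1–15 peptide, 80 μM ATP, HEPES pH 7.4, 2.4% DMSO. Phosphotyrosine detected by LANCE (Eu anti-pTyr/streptavidin-APC) after EDTA stop; IC50 by nonlinear regression, reported as pIC50.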

[2] = molecular target: T2, catalytic domain of human VEGFR3 (Homo sapiens, UniProt P35916, H890Q); assay: VEGFR-3 Homogenous Time-Resolved Fluorescence Assay (VEGFR-3-HTRF); assay type: biochemical; settings: for IC50: read-out: VEGFR3 PIC50 VEGFR-3-HTRF assay
T2 construct: made in house; host or cells: Sf9 insect cells (baculovirus, pFastBac1)
T2 sequence (P35916 with tags, fused parts or gaps isoform P35916-1 H890Q): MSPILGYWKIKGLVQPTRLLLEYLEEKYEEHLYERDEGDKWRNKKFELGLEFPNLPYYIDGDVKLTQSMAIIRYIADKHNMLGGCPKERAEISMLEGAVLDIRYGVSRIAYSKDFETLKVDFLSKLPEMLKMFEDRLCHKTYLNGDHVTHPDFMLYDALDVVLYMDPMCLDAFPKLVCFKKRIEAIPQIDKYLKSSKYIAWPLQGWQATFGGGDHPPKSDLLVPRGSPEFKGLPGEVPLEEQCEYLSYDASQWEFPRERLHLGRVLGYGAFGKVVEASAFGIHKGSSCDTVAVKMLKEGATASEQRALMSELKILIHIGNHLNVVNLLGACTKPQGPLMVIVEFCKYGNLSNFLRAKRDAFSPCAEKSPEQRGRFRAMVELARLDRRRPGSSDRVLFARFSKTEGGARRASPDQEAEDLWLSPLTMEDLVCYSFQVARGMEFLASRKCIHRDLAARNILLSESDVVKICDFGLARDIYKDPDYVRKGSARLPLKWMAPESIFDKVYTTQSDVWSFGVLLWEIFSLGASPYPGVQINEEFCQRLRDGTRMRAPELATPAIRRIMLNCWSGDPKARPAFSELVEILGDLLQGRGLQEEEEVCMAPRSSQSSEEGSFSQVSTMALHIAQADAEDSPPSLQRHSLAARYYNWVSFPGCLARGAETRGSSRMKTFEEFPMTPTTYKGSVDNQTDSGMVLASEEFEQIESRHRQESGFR
Excerpt: VEGFR—3-Homogenous Time-Resolved Fluorescence Assay (VEGFR-3-HTRF)
This assay assesses Vascular Endothelial Growth Factor 3 (VEGFR3) tyrosine kinase inhibitory activity in substrate phosphorylation assays. The assay examines the ability of small molecule organic compounds to inhibit the tyrosine phosphorylation of a peptide substrate.
The substrate phosphorylation assays use the VEGFR3 catalytic domain, which is expressed in Sf. 9 insect cells as an amino-terminal GST-tagged fusion protein. The catalytic domain of human VEGFR3 (AA residues #819–1298 based upon GenBank Accession #XM003852) is cloned by PCR from human Placenta Marathon Ready cDNA (Clontech). The PCR product is subcloned into pFastBac1 vector containing an N-terminal GST tag. The resulting pFB/GST/VEGFR3icd vector is used to generate a recombinant baculovirus for protein expression. The VEGFR3 catalytic domain translated sequence is:
Autophosphorylation allows enzymes to be fully activated prior to addition to peptide substrates. The assays are performed using enzyme that has been activated by autophosphorylation via preincubation in buffer with ATP and magnesium. Activated enzyme is then diluted and added to titrated compound and the substrate mix.
200 nM VEGFR3 enzyme is activated for 45 minutes at room temperature by incubating the enzyme in buffer containing 100 mM HEPES (pH7.2), 75 μM ATP, 0.3 mM DTT, 0.1 mg/mL BSA, and 10 mM MgCl2. After activation, VEGFR3 is diluted 100-fold into 2× dilution buffer: 200 mM HEPES (pH 7.5), 0.2 mg/mL BSA, 0.6 mM DTT. 20 μL of the diluted enzyme mix is added to 20 μL of 2× substrate mix (150 μM ATP, 20 mM MgCl2, 0.72 μM biotinylated peptide) in the assay plates. Final assay conditions are: 100 mM HEPES (pH 7.2), 75 μM ATP, 10 mM MgCl2, 0.1 mg/mL BSA, 0.3 mM DTT, 0.36 μM biotinylated peptide, and 1 nM VEGFR3 enzyme. Assay plates are incubated for 1.5 hours at room temperature before the addition of 30 μL 100 mM EDTA to the wells to stop the enzymatic reaction. 40 μL/well of HTRF mix are then added to the assay plates for the detection of phosphorylated substrate. Final assay concentrations are: 100 mM HEPES (pH7.2), 0.1 mg/mL BSA, 15 nM streptavidin-labeled allophycocyanin (PerkinElmer), and 1 nM europium-labeled anti-phosphotyrosine antibody (PerkinElmer). Assay plates are left unsealed and are counted in a Wallac Multilabel Counter 1420 (PerkinElmer).
The data for dose responses are plotted as % Control calculated with the data reduction formula 100*(U1–C2)/(C1–C2) versus concentration of compound where U is the unknown value, C1 is the average control value obtained for DMSO , and C2 is the average control value obtained for 0.1M EDTA. Data are fitted to the curve described by: y=((Vmax*x)/(K+x)) where Vmax is the upper asymptote and K is the IC50.

[3] = molecular target: T3, TIE2 intracellular domain/c-fms extracellular domain (TIE2/c-fms) chimeric protein (Homo sapiens, UniProt Q02763); assay: TIE-2 Autophosphorylation Assay (TIE2-C); assay type: cell-based; settings: TIE2/c-fms expressing mouse 3T3 cells
T3 construct: fused on or other part: c-fms (CSF1R) extracellular domain in place of TIE2's own ectodomain; it serves as the capture handle for the anti-c-fms ELISA; P07333 (Macrophage colony-stimulating factor 1 receptor)
T3 sequence (Q02763 whole entry, change not shown, the tested form may be a part): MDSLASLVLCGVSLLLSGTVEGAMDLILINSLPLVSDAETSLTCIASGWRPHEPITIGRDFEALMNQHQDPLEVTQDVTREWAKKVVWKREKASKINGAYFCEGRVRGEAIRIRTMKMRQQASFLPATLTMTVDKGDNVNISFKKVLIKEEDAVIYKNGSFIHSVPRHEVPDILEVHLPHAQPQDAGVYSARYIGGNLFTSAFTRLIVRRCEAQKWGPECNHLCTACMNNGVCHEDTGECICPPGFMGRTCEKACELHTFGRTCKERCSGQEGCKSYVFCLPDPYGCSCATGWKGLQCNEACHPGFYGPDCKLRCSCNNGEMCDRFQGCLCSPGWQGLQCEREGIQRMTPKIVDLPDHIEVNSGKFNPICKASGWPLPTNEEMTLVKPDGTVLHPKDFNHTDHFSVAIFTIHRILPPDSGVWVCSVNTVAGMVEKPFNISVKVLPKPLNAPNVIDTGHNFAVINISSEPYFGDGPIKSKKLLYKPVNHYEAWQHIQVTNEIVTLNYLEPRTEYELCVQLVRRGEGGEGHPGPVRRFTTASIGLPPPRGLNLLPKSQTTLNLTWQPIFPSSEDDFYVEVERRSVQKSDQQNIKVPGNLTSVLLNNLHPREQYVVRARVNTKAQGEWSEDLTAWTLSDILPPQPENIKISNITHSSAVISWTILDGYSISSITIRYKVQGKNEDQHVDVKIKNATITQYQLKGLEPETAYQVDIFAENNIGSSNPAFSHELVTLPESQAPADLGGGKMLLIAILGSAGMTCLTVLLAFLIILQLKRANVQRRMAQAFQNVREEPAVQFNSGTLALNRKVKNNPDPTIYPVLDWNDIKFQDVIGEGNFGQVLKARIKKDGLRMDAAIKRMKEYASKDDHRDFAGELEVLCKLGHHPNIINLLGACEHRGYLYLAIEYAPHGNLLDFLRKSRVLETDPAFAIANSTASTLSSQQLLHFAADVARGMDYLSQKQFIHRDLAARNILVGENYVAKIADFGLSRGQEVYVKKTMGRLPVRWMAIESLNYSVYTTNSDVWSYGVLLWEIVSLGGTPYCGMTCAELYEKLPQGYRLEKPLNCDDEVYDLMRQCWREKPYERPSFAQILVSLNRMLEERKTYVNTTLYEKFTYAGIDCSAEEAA
Procedure: TIE-2 Autophosphorylation Assay (TIE2-C)
The TIE-2 autophosphorylation assay uses an ELISA method and a TIE2 intracellular domain/c-fms extracellular domain (TIE2/c-fms) chimeric protein expressing mouse 3T3 cell line. This assay measures the autophosphorylation level of TIE2 protein expressed in cells. The cells are cultured in 96 well plates and grown in high glucose DMEM containing 10% serum at 37° C. in a humidified 10% CO2, 90% air incubator. On the day of the assay, the serum containing medium is removed from the cells and replaced with serum free medium for one hour. The test compound (diluted from a 10 mM stock in DMSO, final DMSO concentration is 0.1%) is incubated with TIE2/c-fms expressing cells for 30 minutes in serum free DMEM. Intrinsic cellular dephosphorylation of the receptor is blocked by the addition of the tyrosine phosphatase inhibitor, sodium orthovanadate, from a 100 mM aqueous stock to a final concentration of 1 mM. The culture media is removed by aspiration and the cells incubated for 30 to 60 mins on ice with lysis buffer containing 137 mM NaCl, 2 mM EDTA, 10% glycerol, 1 mM sodium ortho vanadate, 1×tyrosine phosphatase inhibitor cocktail (Sigma) and complete protease inhibitor cocktail (Roche) in 20 mM Tris-HCl (pH8.0). The cell extracts are transferred into Rat anti-c-fms antibody (Zymed-clone 12-2d6) ([…]) coated 96 well plates and incubated for 12 hrs at 4 degrees. The extracts are removed by aspiration and the plate, washed in a buffer comprising PBS, 0.05% Tween-20, 0.05% NP-40 and 5% SuperBlock (Pierce) followed by incubation with an HRP (horseradish peroxidase) conjugated anti-phosphotyrosine antibody, (Upstate Biotech) The plates are again washed with the aforementioned wash buffer and the colorimetric HRP substrate, TMB is added. The reaction progresses for 90 seconds and is stopped with the addition of 2M H2SO4. The optical density at 450 nm derived from HRP catalyzed TMB is measured with a plate reader capable of reading at the appropriate wavelength (e.g. SpectroMax from Molecular Dynamics). The percent inhibition of activity is calculated relative to non-vanadate treated control wells. The concentration of test compound that inhibits 50% of activity (IC50) is interpolated using nonlinear regression (Levernberg-Marquardt) and the equation, y=Vmax (1−x/(K+x))+Y2, where “K” is equal to the IC50.

[4] = molecular target: T4, GST-VEGFR2 (Homo sapiens, UniProt P35968); assay: VEGF-R2 Enzyme Assay (VEGF-E2), LANCE method; assay type: biochemical; settings: for IC50: read-out: VEGFR2 PIC50 VEGFR-E2 assay
T4 construct: GST-VEGFR2, baculovirus expressed recombinant constructs of the intracellular domains; made in house
T4 sequence (P35968 786-1356 limits assumed): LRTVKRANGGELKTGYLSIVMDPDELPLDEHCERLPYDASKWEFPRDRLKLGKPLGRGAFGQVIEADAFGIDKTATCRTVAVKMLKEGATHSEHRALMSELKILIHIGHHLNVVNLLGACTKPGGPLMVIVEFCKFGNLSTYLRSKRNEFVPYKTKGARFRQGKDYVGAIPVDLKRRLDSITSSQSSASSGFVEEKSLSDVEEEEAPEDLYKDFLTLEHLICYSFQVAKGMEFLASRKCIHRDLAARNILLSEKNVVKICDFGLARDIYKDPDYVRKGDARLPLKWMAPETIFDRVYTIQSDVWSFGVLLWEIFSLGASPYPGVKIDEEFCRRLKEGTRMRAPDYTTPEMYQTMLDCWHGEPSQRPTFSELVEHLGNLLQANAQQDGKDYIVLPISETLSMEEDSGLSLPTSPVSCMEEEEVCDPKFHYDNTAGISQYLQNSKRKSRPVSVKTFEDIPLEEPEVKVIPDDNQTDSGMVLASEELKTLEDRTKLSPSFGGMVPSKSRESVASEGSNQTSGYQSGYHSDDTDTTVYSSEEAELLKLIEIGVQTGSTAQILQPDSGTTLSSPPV

T1 sequence (Q02763 762-1104): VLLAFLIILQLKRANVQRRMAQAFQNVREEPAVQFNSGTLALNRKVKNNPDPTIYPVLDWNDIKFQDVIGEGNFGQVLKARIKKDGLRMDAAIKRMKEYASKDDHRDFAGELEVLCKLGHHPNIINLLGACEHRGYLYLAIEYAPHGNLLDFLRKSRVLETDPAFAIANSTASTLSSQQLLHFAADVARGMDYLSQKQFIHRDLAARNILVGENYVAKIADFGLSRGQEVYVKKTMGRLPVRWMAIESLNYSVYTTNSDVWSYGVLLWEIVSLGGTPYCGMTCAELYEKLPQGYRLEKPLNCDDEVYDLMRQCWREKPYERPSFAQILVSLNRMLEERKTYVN

IC50 [1] | IC50 [2] | IC50 [3] | IC50 [4] | Compound | TIE2 PIC50 TIE2-E2 assay [1] | VEGFR2 PIC50 VEGFR-E2 assay [4] | VEGFR3 PIC50 VEGFR-3-HTRF assay [2]
≤ 0.0398 µM | > 10 µM | ≥ 0.3 µM | – | CC1CCCCN1CCCNc1ncc2c(-c3ccc(NC(=O)Nc4cc(C(F)(F)F)ccc4F)cc3)nn(C)c2n1 (stereo not shown) [Example 85] | – | – | –
≤ 0.0398 µM | – | ≥ 0.3 µM | – | CC1CCCCN1CCCNc1ncc2c(-c3ccc(NC(=O)Nc4cc(C(C)(C)C)on4)c(F)c3)nn(C)c2n1 (stereo not shown) [Example 135] | – | – | –
≤ 0.0398 µM | – | ≥ 0.3 µM | – | CCN(CC)CCCNc1ncc2c(-c3ccc(NC(=O)Nc4cc(C(C)(C)C)on4)c(F)c3)nn(C)c2n1 [Example 136] | – | – | –
≤ 0.0398 µM | – | 0.1 to 0.3 µM | – | CN1CCN(CCCNc2ncc3c(-c4ccc(NC(=O)Nc5cc(C(C)(C)C)on5)c(F)c4)nn(C)c3n2)CC1 [Example 138] | – | – | –
≤ 0.0398 µM | > 10 µM | ≥ 0.3 µM | 1 to 10 µM | Cn1nc(-c2ccc(NC(=O)Nc3cc(C(F)(F)F)ccc3F)cc2)c2cnc(NCCCN3CCOCC3)nc21 [Example 84] | – | – | –
1 to 10 µM | 1 to 10 µM | – | 1 to 10 µM | Cn1nc(-c2ccc(NS(=O)(=O)c3cccc(Cl)c3Cl)cc2)c2cnc(NCCCCO)nc21 [Example 113, 2,3-Dichloro-N-{4-[1-methyl-6-(4-hydroxy-butylamino)-1H-pyrazolo[3,4-d]pyrimidin-3-yl]-phenyl}-benzenesulfonamide] | – | – | –
0.0398 to 0.1 µM | 1 to 10 µM | ≥ 0.3 µM | – | Cn1nc(-c2ccc(NC(=O)Nc3cc(C(F)(F)F)ccc3F)cc2)c2cnc(NCCc3c[nH]cn3)nc21 [Example 145] | – | – | –
≤ 0.0398 µM | – | 0.1 to 0.3 µM | > 10 µM | Cn1nc(-c2ccc(NC(=O)Nc3cc(C(C)(C)C)on3)c(F)c2)c2cnc(NCCCN3CCOCC3)nc21 [Example 134] | – | – | –
≤ 0.0398 µM | – | ≥ 0.3 µM | – | CN1CCCC1CCNc1ncc2c(-c3ccc(NC(=O)Nc4cc(C(C)(C)C)on4)c(F)c3)nn(C)c2n1 (stereo not shown) [Example 137] | – | – | –
≤ 0.0398 µM | > 10 µM | – | 1 to 10 µM | CC(=O)NCCNc1ncc2c(-c3ccc(NC(=O)Nc4cc(C(F)(F)F)ccc4F)cc3)nn(C)c2n1 [Example 98] | – | – | –
0.0398 to 0.1 µM | 0.1 to 1 µM | – | 1 to 10 µM | Cn1nc(-c2ccc(NC(=O)Nc3cc(C(C)(C)C)on3)cc2)c2cnc(NCCN3CCOCC3)nc21 [Example 35] | – | – | –
≤ 0.0398 µM | – | ≥ 0.3 µM | – | CCN(CC)CCCNc1ncc2c(-c3ccc(NC(=O)Nc4cc(C(F)(F)F)ccc4F)cc3)nn(C)c2n1 [Example 88, 1-(2-Fluoro-5-trifluoromethyl-phenyl)-3-{4-[1-methyl-6-(3-diethylamino-propylamino)-1H-pyrazolo[3,4-d]pyrimidin-3-yl]-phenyl} urea] | – | – | –
0.0398 to 0.1 µM | 1 to 10 µM | – | > 10 µM | Cn1nc(-c2ccc(NC(=O)Nc3cc(C(F)(F)F)ccc3F)cc2)c2cnc(NCCCCNS(C)(=O)=O)nc21 [Example 97, N-[4-(3-{4-[3-(2-Fluoro-5-trifluoromethyl-phenyl)-ureido]-phenyl} -1-methyl-1H-pyrazolo[3,4-d]pyrimidin-6-ylamino)-butyl]-methanesulfonamide] | – | – | –
≤ 0.0398 µM | – | ≥ 0.3 µM | – | CN1CCCC1CCNc1ncc2c(-c3ccc(NC(=O)Nc4cc(C(F)(F)F)ccc4F)cc3)nn(C)c2n1 (stereo not shown) [Example 89, 1-(2-Fluoro-5-trifluoromethyl-phenyl)-3-{4-[1-methyl-6-[2-(1-methyl-pyrrolidin-2-yl)-ethylamino]-1H-pyrazolo[3,4-d]pyrimidin-3-yl]-phenyl} urea] | – | – | –
1 to 10 µM | 1 to 10 µM | – | > 10 µM | Cn1nc(-c2ccc(NS(=O)(=O)c3cccc(Cl)c3Cl)cc2)c2cnc(NCCCCNS(C)(=O)=O)nc21 [Example 122, 2,3-Dichloro-N-{4-[1-methyl-6-(4-methanesulfonylamino-butylamino)-1H-pyrazolo[3,4-d]pyrimidin-3-yl]-phenyl}-benzenesulfonamide] | – | – | –
≤ 0.0398 µM | 1 to 10 µM | – | 1 to 10 µM | Cn1cccc1CCNc1ncc2c(-c3ccc(NC(=O)Nc4cc(C(F)(F)F)ccc4F)cc3)nn(C)c2n1 [Example 101, 1-(2-Fluoro-5-trifluoromethyl-phenyl)-3-{4-[1-methyl-6-(2-[1-methyl-1H-pyrrol-2-yl]-ethylamino)-1H-pyrazolo[3,4-d]pyrimidin-3-yl]-phenyl} urea] | – | – | –
– | – | – | – | COCCNc1ncc2c(-c3ccc(NC(=O)Nc4cc(C(F)(F)F)ccc4F)cc3)nn(C)c2n1 [Example 32] | +++ (+++ = PIC50 = 7.00 to less than 7.40) | + (+ = PIC50 = 5.00 to less than 6.00) | + (+ = PIC50 = 5.00 to less than 6.00)
0.0398 to 0.1 µM | 0.1 to 1 µM | ≥ 0.3 µM | – | Cn1cncc1CCNc1ncc2c(-c3ccc(NC(=O)Nc4cc(C(F)(F)F)ccc4F)cc3)nn(C)c2n1 [Example 146, 1-(2-Fluoro-5-trifluoromethyl-phenyl)-3-{4-[(1-methyl-6-(2-[3-methyl-3H-imidazol-4-yl)-ethylamino)-1H-pyrazolo[3,4-d]pyrimidin-3-yl]-phenyl]} urea] | – | – | –
– | – | – | – | 1-(2-fluoro-5-trifluoromethyl-phenyl)-3-(4-{methyl-6-(2-oxopyrrolidin-2-yl)-1H-pyrazolo[3,4-d]pyrimidin-3-yl}-phenyl)-urea [Example 61] | +++ (+++ = PIC50 = 7.00 to less than 7.40) | ++ (++ = PIC50 = 6.00 to less than 7.00) | + (+ = PIC50 = 5.00 to less than 6.00)
